In patent publication US20180141991A1, “METHODS AND POLYPEPTIDES FOR MODULATION OF IMMUNORESPONSE” (Mackay Medical Foundation The Presbyterian Church In Taiwan …, priority 2015, published 2018):

What was measured:
HLA-DR on monocytes = assay: Surface expression of HLA-DR on primed monocytes, flow cytometry; assay type: cell-based, human; conditions: polypeptide 10 μg/ml, 48 hours of incubation (FIG. 4)
Method: (§1) (A) Monocytes were incubated with rsTLT-1 (10 μg/mL) for 3 days. At the indicated time point, the cells were harvested and the HLA-DR and PD-L1 molecules were analyzed using flow cytometry. […] (B) Monocytes were cultured with different concentrations of rsTLT-1 for 2 days. The cells were then harvested and the HLA-DR and PD-L1 molecules were analyzed using flow cytometry. Surface molecule expression is presented as the mean fluorescence intensity (MFI) relative to each day that the cells were treated with the control medium (dashed line). Values are presented as mean±SEM from 3 independent experiments.
Monocytes were cultured with 10 μg/ml TLT-1 15-63 polypeptide and 10 μg/ml rsTLT-1 for 2 days. The cells were then harvested and the HLA-DR molecules were analyzed using flow cytometry. Surface molecule expression is presented as the MFI relative to each day that the cells were treated with the medium control (dashed line).
(§2) White blood cell concentrates from healthy volunteers were obtained from the Taiwan Blood Service Foundation (Taipei, Taiwan). Written informed consent was obtained for participation in the study, which was approved by the Institutional Review Board of the MacKay Memorial Hospital. Human monocytes were isolated as previously described. In brief, peripheral blood mononuclear cells (PBMCs) were isolated using Ficoll-Paque Plus (GE Healthcare) gradient centrifugation. […]

PD-L1 on monocytes = assay: Surface expression of PD-L1 on primed monocytes, flow cytometry; assay type: cell-based, human; conditions: polypeptide 10 μg/mL, 24 hours, MFI relative to medium control (FIG. 3B)
Method: as §1
(A) depicts structural characteristics of extracellular domain of TLT-1 and designed TLT-1 polypeptides. […] The cells were then harvested and the PD-L1 molecules were analyzed using flow cytometry. Surface molecule expression is presented as the MFI relative to each day that the cells were treated with the medium control (dashed line).
as §2, with “described.” for “described. In brief, peripheral blood mononuclear cells (PBMCs) were isolated using Ficoll-Paque Plus (GE Healthcare) gradient centrifugation.”

Substance | HLA-DR surface expression on monocytes (HLA-DR on monocytes) | PD-L1 surface expression on monocytes (PD-L1 on monocytes)
TLT-1 15-63: GQGIVGSLPEVLQAPVGSSILVQCHYRLQDVKAQKVWCRFLPEGCQPLV (SEQ ID NO: 7; same sequence as SEQ ID NO: 2) (Polypeptide name TLT-1 15-63) | decreased | significantly increased
TLT-1 34-63: ILVQCHYRLQDVKAQKVWCRFLPEGCQPLV (SEQ ID NO: 9; same sequence as SEQ ID NO: 1) (Polypeptide name TLT-1 34-63) |  | induced PD-L1 expression
